Reference: US20250082931A1, “Treating Gastric Cancer Using TTFields Combined with XELOX, FOLFOX or the Individual Constituents Thereof” (Novocure GmbH, priority 2019, published 2025)

Columns and labels:
Format in all cases: cell-based
AGS cells [1] = experiment: Apoptosis analysis by Annexin V / 7AAD staining; settings: for AnnV+ 7AAD+ cell fraction / AnnV+ 7AAD− cell fraction / AnnV− 7AAD+ cell fraction / AnnV− 7AAD− cell fraction: 72 h
Description: (§1) After 72 h of treatment the media and the cells were collected, and cytotoxicity was determined by cell counts. Cells (including cells from the media) were stained for Annexin V and 7AAD for apoptosis analysis. For the testing of the clonogenic effect, cells were seeded for colonies.
(§2) Cells were seeded on inovitro dishes and petri dishes 24 h before starting the experiments. Media containing the indicated concentration of each chemotherapy component alone or FOLFOX and control media was added to the cells and the dishes were connected to TTFields (as in SOP-BI-009) or grown in 37° C., 5% CO2 for 72 h. Each treatment included 8 repeats (8 dishes). The media was replaced every 24 h. At the end of the experiment the cells were collected, and cytotoxicity was determined by cell counts, small number of cells were seeded for colonies and the cells (including cells from the media) were stained for Annexin V and 7AAD for apoptosis analysis.
(§3) Apoptotic effect: Average of cell fraction of each marker staining (Annexin V and 7AAD) of at least 5 dishes from each treatment was calculated in Excel software. The averages from these repeats was calculated to averages and is presented in stacked bar graph using GraphPed software.

AGS cells [2] = experiment: Clonogenic effect (colonies count); settings: for colonies count: 72 h
Description: After 72 h of treatment the media and the cells were collected, and cytotoxicity was determined by cell counts. […] For the testing of the clonogenic effect, cells were seeded for colonies.
After 6-14 days the colonies were fixed, stained and counted to determine clonogenic effect. The overall effect was calculated by multiplying the cytotoxic effect and the clonogenic effect.
Clonogenic effect: The colonies from each well were counted using ImageJ software. Average and standard deviation of colony number of at least 5 wells from each treatment were calculated in excel software. The averages from these repeats was calculated to averages and standard errors and is presented as percent from control (no drug treatment) in XY graph of points with error bars using GraphPed software. Significant was determine by 2-way ANOVA followed Multiple comparison using GraphPed software.

KATO III cells = experiment: Apoptosis analysis by Annexin V / 7AAD staining
Description: as §1, §2, §3

[3] = 50 nM, + TTFields 150 kHz 1.0 V/cm
[4] = 100 nM, + TTFields 150 kHz 1.0 V/cm
[5] = 200 nM, + TTFields 150 kHz 1.0 V/cm
[6] = 400 nM, + TTFields 150 kHz 1.0 V/cm
[7] = 25 nuM, + TTFields 150 kHz 1.0 V/cm
[8] = FOLFOX experiment, 50 nM, + TTFields 150 kHz 1.0 V/cm
[9] = FOLFOX experiment, 50 nM, no TTFields
[10] = 50 nM, 72 h, + TTFields 150 kHz 1.6 V/cm

In the case of O=C1[O][Pt]2([NH][C@@H]3CCCC[C@H]3[NH]2)[O]C1=O [Oxaliplatin], the “elevation in percent of cells that undergo apoptosis, drug + TTFields compared to drug alone” value (AGS cells [1]) is reported as “higher”, the “AnnV+ 7AAD+ cell fraction” value (AGS cells [1]; 25 nM, no TTFields) is reported as 4.00% and the “AnnV+ 7AAD− cell fraction” value (AGS cells [1]; 25 nM, no TTFields) is reported as 6.55%. For the same compound, the “AnnV− 7AAD+ cell fraction” value (AGS cells [1]; 25 nM, no TTFields) was 1.35%, the “AnnV− 7AAD− cell fraction” value (AGS cells [1]; 25 nM, no TTFields) was 88.10% and the “AnnV+ 7AAD+ cell fraction” value (AGS cells [1]; [3]) was 11.65%. For the same compound, the “AnnV+ 7AAD− cell fraction” value (AGS cells [1]; [3]) was 8.40%, the “AnnV− 7AAD+ cell fraction” value (AGS cells [1]; [3]) was 3.10% and the “AnnV− 7AAD− cell fraction” value (AGS cells [1]; [3]) was 76.90%. The “AnnV+ 7AAD+ cell fraction” value (AGS cells [1]; 50 nM, no TTFields) was 4.83%, the “AnnV+ 7AAD− cell fraction” value (AGS cells [1]; 50 nM, no TTFields) was 5.08% and the “AnnV− 7AAD+ cell fraction” value (AGS cells [1]; 50 nM, no TTFields) was 2.08%. For the same compound, the “AnnV− 7AAD− cell fraction” value (AGS cells [1]; 50 nM, no TTFields) was 88.00%, the “AnnV+ 7AAD+ cell fraction” value (AGS cells [1]; [4]) was 12.78% and the “AnnV+ 7AAD− cell fraction” value (AGS cells [1]; [4]) was 9.78%. The “AnnV− 7AAD+ cell fraction” value (AGS cells [1]; [4]) was 2.23%, the “AnnV− 7AAD− cell fraction” value (AGS cells [1]; [4]) was 75.20% and the “AnnV+ 7AAD+ cell fraction” value (AGS cells [1]; 100 nM, no TTFields) was 7.00%. The “AnnV+ 7AAD− cell fraction” value (AGS cells [1]; 100 nM, no TTFields) was 6.45%, the “AnnV− 7AAD+ cell fraction” value (AGS cells [1]; 100 nM, no TTFields) was 1.63% and the “AnnV− 7AAD− cell fraction” value (AGS cells [1]; 100 nM, no TTFields) was 84.93%. For the same compound, the “AnnV+ 7AAD+ cell fraction” value (AGS cells [1]; [5]) was 14.54%, the “AnnV+ 7AAD− cell fraction” value (AGS cells [1]; [5]) was 11.10% and the “AnnV− 7AAD+ cell fraction” value (AGS cells [1]; [5]) was 3.78%. The “AnnV− 7AAD− cell fraction” value (AGS cells [1]; [5]) was 70.58%, the “AnnV+ 7AAD+ cell fraction” value (AGS cells [1]; [6]) was 17.83% and the “AnnV+ 7AAD− cell fraction” value (AGS cells [1]; [6]) was 11.40%. The “AnnV− 7AAD+ cell fraction” value (AGS cells [1]; [6]) was 4.50%, the “AnnV− 7AAD− cell fraction” value (AGS cells [1]; [6]) was 66.23% and the “AnnV+ 7AAD+ cell fraction” value (AGS cells [1]; 400 nM, no TTFields) was 10.87%. For the same compound, the “AnnV+ 7AAD− cell fraction” value (AGS cells [1]; 400 nM, no TTFields) was 6.70%, the “AnnV− 7AAD+ cell fraction” value (AGS cells [1]; 400 nM, no TTFields) was 1.83% and the “AnnV− 7AAD− cell fraction” value (AGS cells [1]; 400 nM, no TTFields) was 80.60%. For the same compound, the “AnnV+ 7AAD+ cell fraction” value (AGS cells [1]; [7]) was 9.00%, the “AnnV+ 7AAD− cell fraction” value (AGS cells [1]; [7]) was 7.65% and the “AnnV− 7AAD+ cell fraction” value (AGS cells [1]; [7]) was 0.75%. For the same compound, the “AnnV− 7AAD− cell fraction” value (AGS cells [1]; [7]) was 82.60%, the “AnnV+ 7AAD+ cell fraction” value (AGS cells [1]; 200 nuM, no TTFields) was 7.64% and the “AnnV+ 7AAD− cell fraction” value (AGS cells [1]; 200 nuM, no TTFields) was 7.00%. For the same compound, the “AnnV− 7AAD+ cell fraction” value (AGS cells [1]; 200 nuM, no TTFields) was 1.46%, the “AnnV− 7AAD− cell fraction” value (AGS cells [1]; 200 nuM, no TTFields) was 83.92% and the “AnnV+ 7AAD+ cell fraction” value (AGS cells [1]; [8]) was 10.3%. For the same compound, the “AnnV+ 7AAD− cell fraction” value (AGS cells [1]; [8]) was 7.2%, the “AnnV− 7AAD+ cell fraction” value (AGS cells [1]; [8]) was 4.4% and the “AnnV− 7AAD− cell fraction” value (AGS cells [1]; [8]) was 78.2%. For the same compound, the “AnnV+ 7AAD+ cell fraction” value (AGS cells [1]; [9]) was 4.6%, the “AnnV+ 7AAD− cell fraction” value (AGS cells [1]; [9]) was 5.1% and the “AnnV− 7AAD+ cell fraction” value (AGS cells [1]; [9]) was 0.2%. For the same compound, the “AnnV− 7AAD− cell fraction” value (AGS cells [1]; [9]) was 90.1%, the colonies count (AGS cells [2]; 25 nM, + TTFields 150 kHz 1.0 V/cm) was 67 % from control and the colonies count (AGS cells [2]; 25 nM, no TTFields) was 91 % from control. For the same compound, the colonies count (AGS cells [2]; [3]) was 70 % from control, the colonies count (AGS cells [2]; 50 nM, no TTFields) was 92 % from control and the colonies count (AGS cells [2]; [4]) was 61 % from control. It also gave a colonies count (AGS cells [2]; 100 nM, no TTFields) of 97 % from control, a colonies count (AGS cells [2]; [5]) of 43 % from control and a colonies count (AGS cells [2]; 200 nM, no TTFields) of 77 % from control. It also gave a colonies count (AGS cells [2]; [6]) of 18 % from control, a colonies count (AGS cells [2]; 400 nM, no TTFields) of 36 % from control and a colonies count (AGS cells [2]; [8]) of 64 % from control. The colonies count (AGS cells [2]; [9]) was 91 % from control, the “colonies number (clonogenic effect and overall effect), drug + TTFields compared to drug alone” value (AGS cells [2]; Two-way ANOVA P<0.001) was “significant reduction in colonies number” and the “elevation in percent of cells that undergo apoptosis, drug + TTFields compared to drug alone” value (KATO III cells) was “higher”. The “AnnV+ 7AAD+ cell fraction” value (KATO III cells; [10]) was 16.12%, the “AnnV+ 7AAD− cell fraction” value (KATO III cells; [10]) was 16.57% and the “AnnV− 7AAD+ cell fraction” value (KATO III cells; [10]) was 1.31%. For the same compound, the “AnnV− 7AAD− cell fraction” value (KATO III cells; [10]) was 66.01% and the “AnnV+ 7AAD+ cell fraction” value (KATO III cells; 50 nM, 72 h, no TTFields) was 6.09%.
